This note sets out measurements from patent US20260216348A1, “IRAK DEGRADATION AGENT AND USE THEREOF” (Increland, priority 2023, published 2026).

Holding throughout (type): cell-based
The target of assay [1] is T1, IRAK4 (Homo sapiens, UniProt Q9NWZ3).
T1 construct: Effect of the Compounds on IRAK4 Protein Degradation in THP1 Cells; endogenous in cells; host or cells: THP-1 cells
T1 sequence (Q9NWZ3 1-460): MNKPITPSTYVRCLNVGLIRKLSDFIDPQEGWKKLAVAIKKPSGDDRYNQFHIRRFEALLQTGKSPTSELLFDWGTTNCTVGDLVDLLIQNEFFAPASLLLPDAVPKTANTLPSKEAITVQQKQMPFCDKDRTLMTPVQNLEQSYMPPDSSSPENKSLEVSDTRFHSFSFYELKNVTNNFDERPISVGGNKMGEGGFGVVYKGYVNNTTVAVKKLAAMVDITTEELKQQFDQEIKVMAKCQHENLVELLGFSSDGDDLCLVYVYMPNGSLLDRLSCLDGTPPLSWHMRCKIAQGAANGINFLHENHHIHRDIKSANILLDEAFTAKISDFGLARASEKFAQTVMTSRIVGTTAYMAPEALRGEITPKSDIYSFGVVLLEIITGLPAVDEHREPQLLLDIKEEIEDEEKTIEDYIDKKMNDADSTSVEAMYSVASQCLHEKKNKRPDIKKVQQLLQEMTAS
The experiment in a line: IRAK4 protein degradation in THP1 cells (Western blot). As to conditions: THP-1 cells, 24 h. As for the experimental part: THP-1 cells were seeded into a 96-well cell culture plate, with 2×10^5 cells and 90 μL of culture medium per well. The cell culture plate was cultured in an incubator with 5% CO2 at 37° C. overnight. The compound was dissolved in DMSO to prepare a stock solution, which was serially diluted into a series of working solutions with a 5-fold concentration gradient using the culture medium and then added to the aforementioned 96-well plate at 10 μL per well. The cell culture plate was further incubated for 24 h in a 5% CO2 incubator at 37° C. After incubation, the 96-well plate was centrifuged and the supernatant was discarded, followed by adding 40 μL of cell lysis buffer containing […]/phosphatase inhibitors to each well for sufficient lysis on an ice bath. Protein quantification was performed using the BCA protein quantification kit, followed by the preparation of Western blot samples. […] After electrophoresis, protein transfer was performed using a PVDF membrane under ice bath conditions for 1 h. After the transfer was completed, the PVDF membrane was blocked with gentle shaking in 5% skim milk at room temperature for 1 h. After blocking, the PVDF membrane was incubated with the primary antibody overnight with gentle shaking at 4° C. The PVDF membrane was washed 3 times with TBST, then the secondary antibody was added and incubated for 1 h with gentle shaking at room temperature, followed by washing of the PVDF membrane with TBST for 3 times. After the washes were completed, the chemiluminescent substrate was added; the PVDF membrane was scanned using a Clinx imager, semi-quantitative analysis was performed with ImageJ software, and the DC50 was calculated using GraphPad Prism 8.0.

The subject of assay [2] is LPS/IL-1β-induced IL-6 secretion in human peripheral blood mononuclear cells (PBMCs). Kind of assay: Inhibition of LPS/IL-1β-induced IL-6 secretion in human PBMCs (IL-6 ELISA). The conditions noted are these: PBMC, LPS 10 ng/mL + IL-1β 20 ng/mL, 24 h pre-incubation, 20 h stimulation. The protocol: This experiment was carried out in RPMI 1640 medium containing 10% FBS and 1% penicillin/streptomycin, with each of the compounds at an initial test concentration of 1 μM.
The compound was dissolved in DMSO to prepare a stock solution, which was serially diluted into some working solutions with a 5-fold concentration gradient using the culture medium and then added to a 96-well plate at 10 μL per well. PBMCs (Batch No.: P122101102C; Milecell Biotechnology Inc.) were counted and diluted to a cell concentration of about 1.3×10^6 cells/mL, and then added to the aforementioned compound-containing 96-well plate at 150 μL per well. The system was mixed well and incubated in a 5% CO2 incubator at 37° C. for 24 h. Then 5 μL of LPS (final concentration: 10 ng/mL) and 5 μL of IL-1β (final concentration: 20 ng/mL) were added to each well, respectively, and the culture was continued for 20 h in a 5% CO2 incubator at 37° C. After incubation, the 96-well plate was centrifuged at 2000 rpm for 4 min. The supernatant was collected and diluted 200-fold, then detected using an IL-6 ELISA kit. The OD450 values were read, and converted to IL-6 concentrations based on a standard curve. The dose-response curves were fitted using GraphPad 8.0 to calculate the IC50 values.
A general note: An ELISA detects its analyte on a solid surface through an enzyme-linked reagent.

For assay [3], the system named is R848-induced IL-6 secretion in human peripheral blood mononuclear cells (PBMCs). Kind of assay: Inhibition of R848-induced IL-6 secretion in human PBMCs (IL-6 ELISA). As to conditions: PBMC, R848 2.5 μg/mL, 20 h pre-incubation, 24 h stimulation. The protocol:
This experiment was carried out in RPMI 1640 medium containing 10% FBS and 1% penicillin/streptomycin, with each of the compounds at an initial test concentration of 1 μM. The compound was dissolved in DMSO to prepare a stock solution, which was serially diluted into a series of working solutions with a 4-fold concentration gradient using the culture medium and then added to a 96-well plate at 10 μL per well. PBMCs (Batch No.: P122101102C; Milecell Biotechnology Inc.) were counted and diluted to a cell concentration of 1.25×10^6 cells/mL, and then added to the aforementioned compound-containing 96-well plate at 160 μL per well. The system was mixed well and incubated in a 5% CO2 incubator at 37° C. for 20 h. Then 10 μL of R848 (final concentration: 2.5 μg/mL) was added, and the culture was continued for 24 h in a 5% CO2 incubator at 37° C. After incubation, the 96-well plate was centrifuged at 2000 rpm for 4 min. The supernatant was collected and diluted 120-fold, then detected using an IL-6 ELISA kit. The OD450 values were read, and converted to IL-6 concentrations based on a standard curve.

As a reminder, the DC50 is the concentration at which degradation of the target reaches its halfway point. One may read the IC50 as the concentration that gives 50% inhibition. Regarding `CN(C)c1cc2nn([C@H]3CC[C@H](CN4CC[C@H](n5cc6cc(N7CCC(=O)NC7=O)c(F)cc6n5)[C@@H](F)C4)CC3)cc2cc1NC(=O)c1cnn2cccnc12` [TM-131], in assay [1], the DC50 turned out to be 0.81 nM. For the same compound, the IC50 in assay [2] amounted to 5.07 nM.

`CN(C)c1cc2nn([C@H]3CC[C@H](CN4CC[C@@H](n5cc6cc(F)c(C7CCC(=O)NC7=O)cc6n5)[C@@H](F)C4)CC3)cc2cc1NC(=O)c1cnn2cccnc12` (stereo partly drawn) [TM-139] gave a DC50 in assay [1] of less than 1 nM. In addition, in assay [2], the IC50 was determined as 4.35 nM.

For the compound `CN(C)c1cc2nn([C@H]3CC[C@H](CN4CCC5(CC4)C[C@@H](n4cc6cc(C7CCC(=O)NC7=O)c(F)cc6n4)CO5)CC3)cc2cc1NC(=O)c1cnn2cccnc12` (stereo partly drawn) [TM-141], the 50% degradation concentration (DC50) in assay [1] is 4.33 nM. Also, in assay [2], the IC50 turned out to be 4.49 nM.

Turning to `C[C@@H]1CN(C[C@H]2CC[C@H](n3cc4cc(NC(=O)c5cnn6cccnc56)c(N(C)C)cc4n3)CC2)CC[C@H]1n1cc2ccc(C3CCC(=O)NC3=O)cc2n1` (stereo partly drawn) [TM-142], the DC50 in assay [1] turned out to be 0.77 nM. In assay [2], the IC50 was 0.88 nM.

On to `CN(C)c1cc2nn([C@H]3CC[C@H](CN4CCC(N5Cc6ccc(N7CCC(=O)NC7=O)cc6C5=O)CC4)CC3)cc2cc1NC(=O)c1cnn2cccnc12` [TM-143], for which the DC50 in assay [1] stood at 135 nM. The IC50 in assay [2] was determined as 11.9 nM. The matching figures for `CN(C)c1cc2nn([C@H]3CC[C@H](CN4CC[C@H](n5cc6ccc(C7CCC(=O)NC7=O)cc6n5)[C@@H](F)C4)CC3)cc2cc1NC(=O)c1cnn2cccnc12` (stereo partly drawn) [TM-151]: 1.66 nM and 7.13 nM. The matching figures for `CN(C)c1cc2nn([C@H]3CC[C@H](CN4CC[C@H](n5cc6ccc(C7CCC(=O)NC7=O)cc6n5)[C@H](F)C4)CC3)cc2cc1NC(=O)c1cnn2cccnc12` (stereo partly drawn) [TM-153]: 0.79 nM and 6.79 nM. Consider `CN(C)c1cc2nn([C@H]3CC[C@H](CN4CC[C@@H](n5cc6ccc(C7CCC(=O)NC7=O)cc6n5)[C@@H](F)C4)CC3)cc2cc1NC(=O)c1cnn2cccnc12` (stereo partly drawn) [TM-154], for which, in assay [1], the 50% degradation concentration (DC50) was 1.27 nM. The IC50 in assay [2] came to 1.45 nM. In turn, `CN(C)c1cc2nn([C@H]3CC[C@H](CN4CC[C@H](n5cc6cc(C7CCC(=O)NC7=O)ccc6n5)[C@H](F)C4)CC3)cc2cc1NC(=O)c1cnn2cccnc12` (stereo partly drawn) [TM-155] gave a DC50 in assay [1] of 0.31 nM. Further, the IC50 in assay [2] was 1 nM. Take `CN(C)c1cc2nn([C@H]3CC[C@H](CN4CC[C@@H](n5cc6cc(C7CCC(=O)NC7=O)ccc6n5)[C@@H](F)C4)CC3)cc2cc1NC(=O)c1cnn2cccnc12` (stereo partly drawn) [TM-156]: it took 0.32 nM to reach half-maximal degradation in assay [1] (DC50). For the same compound, in assay [2], the IC50 came to 1.17 nM. The compound `C[C@H]1CN(C[C@H]2CC[C@H](n3cc4cc(NC(=O)c5cnn6cccnc56)c(N(C)C)cc4n3)CC2)CC[C@@H]1n1cc2ccc(C3CCC(=O)NC3=O)cc2n1` (stereo partly drawn) [TM-157] came in with a half-maximal degradation concentration (DC50) in assay [1] of 1.12 nM. Also, in assay [2], the 50% inhibitory concentration (IC50) was 1.46 nM. In turn, `CN(C)c1cc2nn([C@H]3CC[C@H](CN4CC[C@H](n5cc6cc(F)c(C7CCC(=O)NC7=O)cc6n5)[C@@H](F)C4)CC3)cc2cc1C(=O)Nc1cnn2cccnc12` (stereo partly drawn) [TM-158] came in with a DC50 in assay [1] of 1.41 nM. In addition, the IC50 in assay [2] is 14.6 nM. `CO[C@H]1CN(C[C@H]2CC[C@H](n3cc4cc(NC(=O)c5cnn6cccnc56)c(N(C)C)cc4n3)CC2)CC[C@@H]1n1cc2ccc(C3CCC(=O)NC3=O)cc2n1` (stereo partly drawn) [TM-166] displayed a DC50 in assay [1] of 1.58 nM. For the same compound, the IC50 in assay [2] amounted to 0.89 nM.

`CN(C)c1cc2nn(C3CCC(CN4C[C@@H](F)[C@@H](n5cc6cc(N7CCC(=O)NC7=O)ccc6n5)C4)CC3)cc2cc1NC(=O)c1cnn2cccnc12` (stereo partly drawn) [TM-206] came in with an IC50 in assay [3] of 5.49 nM. The same measure, in the same setting: the figure for `CN(C)c1cc2nn([C@H]3CC[C@H](CN4CC[C@H](n5cc6c(F)cc(N7CCC(=O)NC7=O)cc6n5)C4)CC3)cc2cc1NC(=O)c1cnn2cccnc12` [TM-216] is 13.4 nM; for `CN(C)c1cc2nn([C@H]3CC[C@H](CN4CC[C@@H](n5cc6c(F)cc(N7CCC(=O)NC7=O)cc6n5)C4)CC3)cc2cc1NC(=O)c1cnn2cccnc12` [TM-217] it is 8.59 nM.

Compound `CN(C)c1cc2nn([C@H]3CC[C@H](CN4C[C@@H](n5cc6c(F)cc(N7CCC(=O)NC7=O)cc6n5)[C@@H](F)C4)CC3)cc2cc1NC(=O)c1cnn2cccnc12` [TM-218] returned an IC50 in assay [3] of 15.6 nM. The same measure, in the same setting: the figure for `CN(C)c1cc2nn([C@H]3CC[C@H](CN4C[C@@H](F)[C@@H](n5cc6c(F)cc(N7CCC(=O)NC7=O)cc6n5)C4)CC3)cc2cc1NC(=O)c1cnn2cccnc12` [TM-219] is 14.8 nM.

As to `CN(C)c1cc2nn([C@H]3CC[C@H](CN4C[C@H](F)[C@@H](n5cc6c(F)cc(N7CCC(=O)NC7=O)cc6n5)C4)CC3)cc2cc1NC(=O)c1cnn2cccnc12` [TM-220], in assay [3], the IC50 worked out at 8.1 nM. Still for that read-out and setting: the figure for `O=C1CCC(c2ccc3cn([C@@H]4CCN(C[C@H]5CC[C@H](n6cc7cc(NC(=O)c8cnn9cccnc89)c(F)cc7n6)CC5)C4)nc3c2)C(=O)N1` (stereo partly drawn) [TM-222] is 14 nM; for `CN(C)c1cc2nn([C@H]3CC[C@H](CN4C[C@H](F)[C@@H](n5cc6cc(F)c(N7CCC(=O)NC7=O)cc6n5)C4)CC3)cc2cc1NC(=O)c1cnn2cccnc12` [TM-223] it is 10.8 nM.

Take `CN(C)c1cc2nn([C@@H]3CC[C@@H](CN4CC[C@H](n5cc6c(F)cc(N7CCC(=O)NC7=O)cc6n5)C4)OC3)cc2cc1NC(=O)c1cnn2cccnc12` [TM-224]: in assay [3], the IC50 amounted to 15.5 nM.

`CN(C)c1cc2nn([C@@H]3CC[C@@H](CN4CC[C@@H](n5cc6c(F)cc(N7CCC(=O)NC7=O)cc6n5)C4)OC3)cc2cc1NC(=O)c1cnn2cccnc12` [TM-225] showed an IC50 in assay [3] of 12.3 nM. Same read-out and setting: the figure for `CN(C)c1cc2nn([C@H]3CC[C@H](CN4CC[C@@H](c5nc6cc(N7CCC(=O)NC7=O)ccc6o5)C4)CC3)cc2cc1NC(=O)c1cnn2cccnc12` [TM-226] is 4.28 nM. Still for that read-out and setting: the figure for `CN(C)c1cc2nn([C@H]3CC[C@H](CN4CC[C@H](c5nc6cc(N7CCC(=O)NC7=O)ccc6o5)C4)CC3)cc2cc1NC(=O)c1cnn2cccnc12` [TM-227] is 13.8 nM; for `CN(C)c1cc2nc([C@H]3CC[C@H](CN4CCC(n5cc6c(F)cc(N7CCC(=O)NC7=O)cc6n5)CC4)CC3)cn2nc1NC(=O)c1cnn2cccnc12` [TM-228] it is 14.7 nM; for `CN(C)c1cc2nc([C@H]3CC[C@H](CN4C[C@@H](n5cc6cc(N7CCC(=O)NC7=O)ccc6n5)[C@@H](F)C4)CC3)cn2nc1NC(=O)c1cnn2cccnc12` [TM-229] it is 19.5 nM. `CN(C)c1cc2nn([C@H]3CC[C@H](CN4CC5(CCN(c6nc7ccc(C8CCC(=O)NC8=O)cn7n6)CC5)C4)CC3)cc2cc1NC(=O)c1cnn2cccnc12` (stereo partly drawn) [TM-251]: the DC50 in assay [1] turned out to be 18.1 nM. The IC50 in assay [2] amounted to 2.19 nM.
